The test system of series [1] is Key Broadleaf Weed and Crop Species. Description: Post-emergent Test II herbicidal activity (Table 5). It is filed as in vivo. To be noted: post-emergence, 336 h, 14 days after application. Put shortly: (§1)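 Scoring: visual, 0–100% injury at 14 d versus untreated. Treatment: overhead track spray, 187 L/ha, onto plants at the first–second true leaf stage. Growth: greenhouse, ~15 h light, 23–29 °C day, 22–28 °C night.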

The test system of series [2] is Key Grass and Sedge Weeds as well as Grass Crops. As to the kind of experiment: Post-emergent Test II herbicidal activity (Table 6). In kind it is in vivo. To be noted: post-emergence, 336 h; for pest or weed control at 140 g/ha: application rate 140 g ai/ha; for pest or weed control at 70 g/ha: application rate 70 g ai/ha. Put shortly:
as §1

Where [3] appears, read: ABUTH: velvetleaf (Abutilon theophrasti), 140 g ai/ha, post-emergent, read-out: Visual Growth Reduction (%) 14 Days After Application ABUTH.
[4] abbreviates: BRSNN: oilseed-rape, canola (Brassica napus), 140 g ai/ha, post-emergent, read-out: Visual Growth Reduction (%) 14 Days After Application BRSNN.
The mark [5] stands for this setting: CHEAL: lambsquarters (Chenopodium album), 140 g ai/ha, post-emergent, read-out: Visual Growth Reduction (%) 14 Days After Application CHEAL.
Setting [6] is: EPHHL: wild poinsettia (Euphorbia heterophylla), 140 g ai/ha, post-emergent, read-out: Visual Growth Reduction (%) 14 Days After Application EPHHL.
[7] abbreviates: HELAN: sunflower (Helianthus annuus), 140 g ai/ha, post-emergent, read-out: Visual Growth Reduction (%) 14 Days After Application HELAN.
Where [8] appears, read: VIOTR: wild pansy (Viola tricolor), 140 g ai/ha, post-emergent, read-out: Visual Growth Reduction (%) 14 Days After Application VIOTR.
[9] abbreviates: Triticum aestivum, TRZSS (wheat), read-out: Visual Growth Reduction (%) 14 Days After Application, TRZSS.
Where [10] appears, read: CYPES: yellow nutsedge (Cyperus esculentus), read-out: Visual Growth Reduction (%) 14 Days After Application, CYPES.
Setting [11] is: DIGSA: crabgrass (Digitaria sanguinalis), read-out: Visual Growth Reduction (%) 14 Days After Application, DIGSA.
The mark [12] stands for this setting: ECHCG: barnyardgrass (Echinochloa crus-galli), read-out: Visual Growth Reduction (%) 14 Days After Application, ECHCG.
Setting [13] is: ORYSA: rice (Oryza sativa), read-out: Visual Growth Reduction (%) 14 Days After Application, ORYSA.
The mark [14] stands for this setting: SETFA: giant foxtail (Setaria faberi), read-out: Visual Growth Reduction (%) 14 Days After Application, SETFA.
Where [15] appears, read: SORVU: grain sorghum (Sorghum vulgare), read-out: Visual Growth Reduction (%) 14 Days After Application, SORVU.
Where [16] appears, read: ZEAMX: maize, corn (Zea mays), read-out: Visual Growth Reduction (%) 14 Days After Application, ZEAMX.
Where [17] appears, read: TRZSS (wheat, Triticum aestivum), read-out: Visual Growth Reduction (%) 14 Days After Application, TRZSS.

The text below walks through data of US9113629B2, “4-amino-6-(4-substituted-phenyl)-picolinates and 6-amino-2-(4-substituted-phenyl)-pyrimidine-4-carboxylates and their use as herbicides” (DOW AGROSCIENCES LLC, priority 2013, dated 2015).

Read-outs that look alike come from different tables or passages of the source.

One may read the melting point as the temperature, or range, at which the solid turns liquid.

Compound `COC(=O)c1nc(-c2ccc(C#N)cc2)nc(N)c1OC` [Compound 130] had a melting point of 185.1 to 186.9 °C. The pest or weed control at 140 g/ha in series [1] (setting [3]) lay within 0 to 29%. For the same compound, the pest or weed control at 140 g/ha in series [1] (AMARE: redroot pigweed (Amaranthus retroflexus), 140 g ai/ha, post-emergent, read-out: Visual Growth Reduction (%) 14 Days After Application AMARE) was 0 to 29%. For the same compound, in series [1] (setting [4]), the pest or weed control at 140 g/ha fell in the range of 0 to 29%. For the same compound, the pest or weed control at 140 g/ha in series [1] (setting [5]) fell in the range of 0 to 29%. The pest or weed control at 140 g/ha in series [1] (setting [6]) was 95 to 100%. The pest or weed control at 140 g/ha in series [1] (setting [7]) lay in the range of 85 to 94%. In addition, the pest or weed control at 140 g/ha in series [1] (setting [8]) is 0 to 29%. Further, the pest or weed control at 140 g/ha in series [2] (setting [9]) lay within 0 to 29%. Further, the pest or weed control at 140 g/ha in series [2] (setting [10]) is 0 to 29%. In addition, the pest or weed control at 140 g/ha in series [2] (setting [11]) lay in the range of 0 to 29%. In addition, the pest or weed control at 140 g/ha in series [2] (setting [12]) fell in the range of 0 to 29%. The pest or weed control at 140 g/ha in series [2] (setting [13]) is 0 to 29%. For the same compound, the pest or weed control at 140 g/ha in series [2] (setting [14]) fell in the range of 0 to 29%. The pest or weed control at 140 g/ha in series [2] (setting [15]) is 0 to 29%. In addition, the pest or weed control at 140 g/ha in series [2] (setting [16]) is 0 to 29%.
As to `Nc1c(F)c(-c2ccc(OC(F)F)cc2F)nc(C(=O)O)c1Cl` [Compound 140], the melting point was in the range of 149 to 151 °C. In addition, the pest or weed control at 70 g/ha in series [1] (ABUTH: velvetleaf (Abutilon theophrasti), application rate 70 g ai/ha, read-out: Visual Growth Reduction (%) 14 Days After Application, ABUTH) lay in the range of 0 to 29%. In addition, the pest or weed control at 140 g/ha in series [1] (ABUTH: velvetleaf (Abutilon theophrasti), application rate 140 g ai/ha, read-out: Visual Growth Reduction (%) 14 Days After Application, ABUTH) fell in the range of 0 to 29%. Moreover, the pest or weed control at 70 g/ha in series [1] (AMARE: redroot pigweed (Amaranthus retroflexus), application rate 70 g ai/ha, read-out: Visual Growth Reduction (%) 14 Days After Application, AMARE) is 0 to 29%. The pest or weed control at 140 g/ha in series [1] (AMARE: redroot pigweed (Amaranthus retroflexus), application rate 140 g ai/ha, read-out: Visual Growth Reduction (%) 14 Days After Application, AMARE) was 0 to 29%. For the same compound, the pest or weed control at 70 g/ha in series [1] (BRSNN: oilseed-rape, canola (Brassica napus), application rate 70 g ai/ha, read-out: Visual Growth Reduction (%) 14 Days After Application, BRSNN) was in the range of 0 to 29%. The pest or weed control at 140 g/ha in series [1] (BRSNN: oilseed-rape, canola (Brassica napus), application rate 140 g ai/ha, read-out: Visual Growth Reduction (%) 14 Days After Application, BRSNN) was in the range of 0 to 29%. Besides, in series [1] (CHEAL: lambsquarters (Chenopodium album), application rate 70 g ai/ha, read-out: Visual Growth Reduction (%) 14 Days After Application, CHEAL), the pest or weed control at 70 g/ha was in the range of 0 to 29%. Further, in series [1] (CHEAL: lambsquarters (Chenopodium album), application rate 140 g ai/ha, read-out: Visual Growth Reduction (%) 14 Days After Application, CHEAL), the pest or weed control at 140 g/ha was 0 to 29%. In addition, in series [1] (EPHHL: wild poinsettia (Euphorbia heterophylla), application rate 70 g ai/ha, read-out: Visual Growth Reduction (%) 14 Days After Application, EPHHL), the pest or weed control at 70 g/ha fell in the range of 85 to 94%. For the same compound, the pest or weed control at 140 g/ha in series [1] (EPHHL: wild poinsettia (Euphorbia heterophylla), application rate 140 g ai/ha, read-out: Visual Growth Reduction (%) 14 Days After Application, EPHHL) lay in the range of 85 to 94%. Further, the pest or weed control at 70 g/ha in series [1] (HELAN: sunflower (Helianthus annuus), application rate 70 g ai/ha, read-out: Visual Growth Reduction (%) 14 Days After Application, HELAN) was 60 to 74%. Moreover, the pest or weed control at 140 g/ha in series [1] (HELAN: sunflower (Helianthus annuus), application rate 140 g ai/ha, read-out: Visual Growth Reduction (%) 14 Days After Application, HELAN) lay in the range of 75 to 84%. For the same compound, the pest or weed control at 70 g/ha in series [1] (VIOTR: wild pansy (Viola tricolor), application rate 70 g ai/ha, read-out: Visual Growth Reduction (%) 14 Days After Application, VIOTR) lay in the range of 0 to 29%. Also, the pest or weed control at 140 g/ha in series [1] (VIOTR: wild pansy (Viola tricolor), application rate 140 g ai/ha, read-out: Visual Growth Reduction (%) 14 Days After Application, VIOTR) was 0 to 29%. In series [2] (setting [9]), the pest or weed control at 70 g/ha was in the range of 0 to 29% and the pest or weed control at 140 g/ha lay within 0 to 29%. Also, in series [2] (setting [10]), the pest or weed control at 70 g/ha is 0 to 29% and the pest or weed control at 140 g/ha fell in the range of 0 to 29%. Besides, in series [2] (setting [11]), the pest or weed control at 70 g/ha was in the range of 0 to 29% and the pest or weed control at 140 g/ha was in the range of 0 to 29%. In series [2] (setting [13]), the pest or weed control at 70 g/ha is 0 to 29% and the pest or weed control at 140 g/ha lay within 0 to 29%. For the same compound, in series [2] (setting [15]), the pest or weed control at 70 g/ha was 0 to 29% and the pest or weed control at 140 g/ha was in the range of 0 to 29%. For the same compound, in series [2] (setting [16]), the pest or weed control at 70 g/ha fell in the range of 0 to 29% and the pest or weed control at 140 g/ha is 0 to 29%.
In turn, `C#Cc1ccc(-c2nc(C(=O)OC)c(Cl)c(N)c2C)cc1F` [Compound 151, methyl 4-amino-3-chloro-6-(4-ethynyl-3-fluorophenyl)-5-methylpicolinate] came in with a melting point of 130 to 132 °C. Moreover, the pest or weed control at 70 g/ha in series [1] (ABUTH: velvetleaf (Abutilon theophrasti), 70 g ai/ha, post-emergent, read-out: Visual Growth Reduction (%) 14 Days After Application ABUTH) fell in the range of 95 to 100%. Also, in series [1] (setting [3]), the pest or weed control at 140 g/ha is 95 to 100%. Further, in series [1] (BRSNN: oilseed-rape, canola (Brassica napus), 70 g ai/ha, post-emergent, read-out: Visual Growth Reduction (%) 14 Days After Application BRSNN), the pest or weed control at 70 g/ha was in the range of 75 to 84%. Further, in series [1] (setting [4]), the pest or weed control at 140 g/ha lay in the range of 85 to 94%. Besides, the pest or weed control at 70 g/ha in series [1] (CHEAL: lambsquarters (Chenopodium album), 70 g ai/ha, post-emergent, read-out: Visual Growth Reduction (%) 14 Days After Application CHEAL) lay in the range of 95 to 100%. Also, in series [1] (setting [5]), the pest or weed control at 140 g/ha lay within 95 to 100%. Besides, the pest or weed control at 70 g/ha in series [1] (EPHHL: wild poinsettia (Euphorbia heterophylla), 70 g ai/ha, post-emergent, read-out: Visual Growth Reduction (%) 14 Days After Application EPHHL) was 0 to 29%. The pest or weed control at 140 g/ha in series [1] (setting [6]) is 0 to 29%. Further, in series [1] (HELAN: sunflower (Helianthus annuus), 70 g ai/ha, post-emergent, read-out: Visual Growth Reduction (%) 14 Days After Application HELAN), the pest or weed control at 70 g/ha fell in the range of 85 to 94%. In addition, in series [1] (setting [7]), the pest or weed control at 140 g/ha is 85 to 94%. The pest or weed control at 70 g/ha in series [1] (VIOTR: wild pansy (Viola tricolor), 70 g ai/ha, post-emergent, read-out: Visual Growth Reduction (%) 14 Days After Application VIOTR) lay in the range of 0 to 29%. Besides, in series [1] (setting [8]), the pest or weed control at 140 g/ha lay in the range of 0 to 29%. In series [2] (setting [10]), the pest or weed control at 70 g/ha is 0 to 29% and the pest or weed control at 140 g/ha fell in the range of 75 to 84%. In series [2] (setting [11]), the pest or weed control at 70 g/ha lay in the range of 0 to 29% and the pest or weed control at 140 g/ha was in the range of 0 to 29%. In addition, in series [2] (setting [12]), the pest or weed control at 70 g/ha was 0 to 29% and the pest or weed control at 140 g/ha lay within 45 to 59%. Further, in series [2] (setting [13]), the pest or weed control at 70 g/ha is 0 to 29% and the pest or weed control at 140 g/ha fell in the range of 0 to 29%. For the same compound, in series [2] (setting [14]), the pest or weed control at 70 g/ha lay within 0 to 29% and the pest or weed control at 140 g/ha is 60 to 74%. Also, in series [2] (setting [15]), the pest or weed control at 70 g/ha was in the range of 60 to 74% and the pest or weed control at 140 g/ha was 60 to 74%. Also, in series [2] (setting [17]), the pest or weed control at 70 g/ha lay in the range of 0 to 29% and the pest or weed control at 140 g/ha was 0 to 29%. Further, in series [2] (setting [16]), the pest or weed control at 70 g/ha is 60 to 74% and the pest or weed control at 140 g/ha was in the range of 75 to 84%.
